Source: ChEMBL document CHEMBL5465560, “Selectivity Literature for EUbOPEN Chemogenomic Library” (2024)
One block for each compound: values may come before it.

How the values were obtained:
[1] = target: T1, Mitogen-activated protein kinase kinase kinase 19 (Homo sapiens) (UniProt Q56UN5); test: Selectivity interaction (KinomeScan (DiscoverX)) EUB0001868a MAP3K19; settings: at 1 µM
T1 sequence (whole entry): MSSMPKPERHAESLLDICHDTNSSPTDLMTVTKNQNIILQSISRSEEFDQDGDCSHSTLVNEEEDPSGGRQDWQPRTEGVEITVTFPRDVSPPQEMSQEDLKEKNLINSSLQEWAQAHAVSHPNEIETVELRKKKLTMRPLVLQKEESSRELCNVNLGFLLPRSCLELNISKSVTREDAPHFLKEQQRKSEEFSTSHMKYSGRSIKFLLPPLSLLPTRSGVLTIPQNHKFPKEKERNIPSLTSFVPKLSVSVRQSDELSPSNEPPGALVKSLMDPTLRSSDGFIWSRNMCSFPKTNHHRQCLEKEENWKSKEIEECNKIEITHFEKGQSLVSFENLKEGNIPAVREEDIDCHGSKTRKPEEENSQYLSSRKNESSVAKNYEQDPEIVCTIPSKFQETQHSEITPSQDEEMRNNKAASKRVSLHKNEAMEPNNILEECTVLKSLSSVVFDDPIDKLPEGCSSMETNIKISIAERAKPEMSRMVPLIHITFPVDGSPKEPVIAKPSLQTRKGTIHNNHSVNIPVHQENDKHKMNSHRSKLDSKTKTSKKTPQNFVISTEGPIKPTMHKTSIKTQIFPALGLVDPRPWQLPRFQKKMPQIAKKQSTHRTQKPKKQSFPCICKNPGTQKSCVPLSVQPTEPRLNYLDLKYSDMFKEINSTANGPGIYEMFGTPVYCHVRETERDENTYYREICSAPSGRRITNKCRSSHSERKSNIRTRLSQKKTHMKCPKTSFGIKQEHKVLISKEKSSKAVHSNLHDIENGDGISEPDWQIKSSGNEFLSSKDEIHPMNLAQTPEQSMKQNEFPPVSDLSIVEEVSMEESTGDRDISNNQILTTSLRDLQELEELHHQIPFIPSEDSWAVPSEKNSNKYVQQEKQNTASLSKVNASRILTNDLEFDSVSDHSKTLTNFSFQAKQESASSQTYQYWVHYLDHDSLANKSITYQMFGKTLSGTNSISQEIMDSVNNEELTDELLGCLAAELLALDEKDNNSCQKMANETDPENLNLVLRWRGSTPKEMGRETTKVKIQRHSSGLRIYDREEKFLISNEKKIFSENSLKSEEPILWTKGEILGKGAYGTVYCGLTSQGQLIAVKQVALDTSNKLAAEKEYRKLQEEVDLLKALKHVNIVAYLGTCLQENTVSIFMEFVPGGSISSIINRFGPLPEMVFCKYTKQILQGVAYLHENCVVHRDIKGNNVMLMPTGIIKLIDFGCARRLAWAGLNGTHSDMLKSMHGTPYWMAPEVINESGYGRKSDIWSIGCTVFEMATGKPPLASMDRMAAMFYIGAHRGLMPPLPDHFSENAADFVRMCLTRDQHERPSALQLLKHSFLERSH

[2] = target: Glucocorticoid receptor (Homo sapiens, UniProt P04150); test: Selectivity interaction (Glucocorticoid receptor binding assay, human recombinant ) EUB0000877a NR3C1
[3] = target: Serine/threonine-protein kinase MRCK beta (Homo sapiens) (UniProt Q9Y5S2); settings: at 10 µM
[4] = target: Tyrosine-protein kinase JAK1 (Homo sapiens, UniProt P23458); test: Selectivity interaction (ProQinase) EUB0000171b JAK1
[5] = target: T2, Serine/threonine-protein kinase Nek3 (Homo sapiens) (UniProt P51956); test: Selectivity interaction (Upstate Kinase Profiler service (Millipore)) EUB0000056c NEK3; settings: at 1 µM
T2 sequence (whole entry): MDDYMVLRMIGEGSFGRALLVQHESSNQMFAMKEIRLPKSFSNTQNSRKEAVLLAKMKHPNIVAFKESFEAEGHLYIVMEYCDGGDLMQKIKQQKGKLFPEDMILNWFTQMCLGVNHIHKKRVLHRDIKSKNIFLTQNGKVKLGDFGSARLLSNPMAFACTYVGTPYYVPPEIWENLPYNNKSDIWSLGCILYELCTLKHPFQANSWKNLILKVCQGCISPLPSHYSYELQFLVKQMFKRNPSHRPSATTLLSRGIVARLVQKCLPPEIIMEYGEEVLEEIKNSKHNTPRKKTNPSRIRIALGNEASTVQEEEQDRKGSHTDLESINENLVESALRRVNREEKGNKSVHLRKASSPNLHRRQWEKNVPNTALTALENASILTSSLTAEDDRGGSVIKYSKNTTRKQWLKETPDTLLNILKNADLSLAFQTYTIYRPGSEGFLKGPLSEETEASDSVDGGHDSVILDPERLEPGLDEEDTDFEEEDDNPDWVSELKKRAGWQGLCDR

[6] = target: Mitogen-activated protein kinase kinase kinase 11 (Homo sapiens) (UniProt Q16584); test: Selectivity interaction (ActivX KiNativ screen (ex vivo kinase selectivity in human PBMCs)) EUB0001619a MAP3K11; format: cell-based; settings: PBMC, at 1 µM
[7] = system: Phosphatidylinositol 4,5-bisphosphate 3-kinase catalytic subunit alpha isoform (Homo sapiens), P42336 [Q546K]; settings: at 10 µM
[8] = target: Ribosomal protein S6 kinase alpha-5 (Homo sapiens) (UniProt O75582); test: Selectivity interaction (Kinase panel (DSF assay)) EUB0001558a RPS6KA5
Sequence of Ribosomal protein S6 kinase alpha-5 (Homo sapiens) (O75582 whole entry, looked up): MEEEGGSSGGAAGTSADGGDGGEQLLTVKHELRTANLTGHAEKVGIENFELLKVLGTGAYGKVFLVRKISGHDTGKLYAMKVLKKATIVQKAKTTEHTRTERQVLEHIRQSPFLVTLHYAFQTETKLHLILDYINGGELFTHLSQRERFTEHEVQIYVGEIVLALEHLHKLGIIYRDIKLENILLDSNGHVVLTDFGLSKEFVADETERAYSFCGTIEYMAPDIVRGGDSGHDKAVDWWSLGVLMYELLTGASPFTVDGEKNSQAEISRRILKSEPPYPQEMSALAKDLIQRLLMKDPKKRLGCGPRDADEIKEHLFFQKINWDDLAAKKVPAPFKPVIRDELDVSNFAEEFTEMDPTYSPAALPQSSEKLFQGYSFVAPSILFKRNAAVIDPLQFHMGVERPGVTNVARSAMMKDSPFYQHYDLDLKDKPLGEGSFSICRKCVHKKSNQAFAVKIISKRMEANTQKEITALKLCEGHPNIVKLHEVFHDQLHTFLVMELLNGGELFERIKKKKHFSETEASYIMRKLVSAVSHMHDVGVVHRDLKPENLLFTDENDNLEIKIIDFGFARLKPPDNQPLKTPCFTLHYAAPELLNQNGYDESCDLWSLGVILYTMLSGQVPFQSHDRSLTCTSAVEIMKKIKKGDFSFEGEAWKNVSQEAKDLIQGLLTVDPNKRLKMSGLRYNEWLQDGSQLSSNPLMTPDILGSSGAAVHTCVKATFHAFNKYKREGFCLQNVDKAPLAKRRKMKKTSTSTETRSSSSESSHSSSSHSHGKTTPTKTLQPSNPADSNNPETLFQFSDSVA

Sequence of Tyrosine-protein kinase JAK1 (P23458 whole entry): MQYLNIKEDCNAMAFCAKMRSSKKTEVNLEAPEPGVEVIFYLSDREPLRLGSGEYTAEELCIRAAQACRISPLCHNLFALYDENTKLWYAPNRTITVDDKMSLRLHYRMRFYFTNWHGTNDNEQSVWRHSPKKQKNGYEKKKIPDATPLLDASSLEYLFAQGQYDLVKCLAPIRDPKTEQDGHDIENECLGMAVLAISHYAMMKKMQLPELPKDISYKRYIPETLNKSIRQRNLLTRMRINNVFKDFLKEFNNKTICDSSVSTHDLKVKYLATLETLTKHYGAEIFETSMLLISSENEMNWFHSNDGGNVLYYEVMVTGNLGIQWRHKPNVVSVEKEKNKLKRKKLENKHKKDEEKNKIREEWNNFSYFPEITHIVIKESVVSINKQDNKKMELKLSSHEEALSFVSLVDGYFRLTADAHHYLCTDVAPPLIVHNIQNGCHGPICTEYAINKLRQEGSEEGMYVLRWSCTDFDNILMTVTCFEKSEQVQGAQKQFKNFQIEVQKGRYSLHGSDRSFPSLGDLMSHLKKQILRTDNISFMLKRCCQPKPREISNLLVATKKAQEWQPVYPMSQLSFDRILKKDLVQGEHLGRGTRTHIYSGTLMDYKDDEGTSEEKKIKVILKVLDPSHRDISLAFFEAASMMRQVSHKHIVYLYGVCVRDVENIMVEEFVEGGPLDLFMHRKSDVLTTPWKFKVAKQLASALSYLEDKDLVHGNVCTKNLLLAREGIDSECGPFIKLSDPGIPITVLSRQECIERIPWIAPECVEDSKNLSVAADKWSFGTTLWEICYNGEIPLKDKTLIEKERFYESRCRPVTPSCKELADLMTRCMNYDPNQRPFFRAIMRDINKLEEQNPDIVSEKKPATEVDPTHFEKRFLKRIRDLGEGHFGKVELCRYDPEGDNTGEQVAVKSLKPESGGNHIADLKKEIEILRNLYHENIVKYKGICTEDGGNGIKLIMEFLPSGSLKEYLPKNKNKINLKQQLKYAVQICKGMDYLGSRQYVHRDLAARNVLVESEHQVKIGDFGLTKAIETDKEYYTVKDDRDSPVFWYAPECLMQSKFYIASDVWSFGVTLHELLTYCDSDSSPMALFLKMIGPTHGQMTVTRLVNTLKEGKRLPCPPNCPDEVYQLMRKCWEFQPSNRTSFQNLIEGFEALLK
Sequence of Mitogen-activated protein kinase kinase kinase 11 (Homo sapiens) (Q16584 whole entry, looked up, canonical isoform): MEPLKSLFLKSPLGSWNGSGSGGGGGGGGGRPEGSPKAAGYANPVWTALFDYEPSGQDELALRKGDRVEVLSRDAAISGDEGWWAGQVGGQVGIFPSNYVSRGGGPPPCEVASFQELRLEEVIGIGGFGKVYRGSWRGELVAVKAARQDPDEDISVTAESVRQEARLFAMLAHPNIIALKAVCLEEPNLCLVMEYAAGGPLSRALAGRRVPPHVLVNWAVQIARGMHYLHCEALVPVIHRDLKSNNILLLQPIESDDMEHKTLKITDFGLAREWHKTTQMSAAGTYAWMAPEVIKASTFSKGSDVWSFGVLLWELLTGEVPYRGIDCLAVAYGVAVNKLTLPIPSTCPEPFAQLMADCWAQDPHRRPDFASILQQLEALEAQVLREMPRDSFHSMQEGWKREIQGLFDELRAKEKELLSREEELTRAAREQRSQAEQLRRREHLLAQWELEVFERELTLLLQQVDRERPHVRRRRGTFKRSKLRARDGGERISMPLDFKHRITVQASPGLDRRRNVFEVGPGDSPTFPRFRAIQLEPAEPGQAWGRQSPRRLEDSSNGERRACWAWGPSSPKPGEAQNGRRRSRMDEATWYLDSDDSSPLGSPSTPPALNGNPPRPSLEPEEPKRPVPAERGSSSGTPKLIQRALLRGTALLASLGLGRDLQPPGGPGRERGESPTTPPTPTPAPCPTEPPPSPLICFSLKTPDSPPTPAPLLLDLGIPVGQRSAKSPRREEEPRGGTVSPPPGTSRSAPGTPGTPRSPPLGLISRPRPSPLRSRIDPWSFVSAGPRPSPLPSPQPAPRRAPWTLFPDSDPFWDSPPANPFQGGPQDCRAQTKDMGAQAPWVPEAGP
Sequence of Glucocorticoid receptor (P04150 whole entry): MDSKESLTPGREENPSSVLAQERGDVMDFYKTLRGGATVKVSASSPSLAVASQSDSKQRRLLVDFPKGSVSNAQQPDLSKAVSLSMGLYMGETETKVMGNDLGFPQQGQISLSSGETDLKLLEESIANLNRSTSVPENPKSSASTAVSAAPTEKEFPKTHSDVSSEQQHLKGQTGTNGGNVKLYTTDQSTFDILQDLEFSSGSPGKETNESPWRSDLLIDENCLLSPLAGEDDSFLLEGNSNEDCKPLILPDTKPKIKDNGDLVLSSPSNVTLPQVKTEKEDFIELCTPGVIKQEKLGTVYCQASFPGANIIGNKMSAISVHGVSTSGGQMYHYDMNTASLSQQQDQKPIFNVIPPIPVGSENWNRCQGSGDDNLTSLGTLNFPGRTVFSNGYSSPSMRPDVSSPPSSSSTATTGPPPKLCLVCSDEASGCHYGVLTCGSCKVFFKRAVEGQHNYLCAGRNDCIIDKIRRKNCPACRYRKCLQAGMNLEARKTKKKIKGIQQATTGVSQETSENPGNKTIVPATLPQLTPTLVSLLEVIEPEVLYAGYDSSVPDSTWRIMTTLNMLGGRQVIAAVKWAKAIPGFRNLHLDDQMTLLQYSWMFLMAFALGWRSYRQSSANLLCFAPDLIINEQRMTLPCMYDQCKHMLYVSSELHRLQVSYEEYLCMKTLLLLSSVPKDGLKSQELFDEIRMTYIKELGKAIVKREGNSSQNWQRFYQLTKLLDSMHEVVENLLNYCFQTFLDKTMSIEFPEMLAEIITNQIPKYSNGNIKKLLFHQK
Sequence of Phosphatidylinositol 4,5-bisphosphate 3-kinase catalytic subunit alpha isoform (Homo sapiens), P42336 [Q546K] (P42336 whole entry Q546K, canonical isoform): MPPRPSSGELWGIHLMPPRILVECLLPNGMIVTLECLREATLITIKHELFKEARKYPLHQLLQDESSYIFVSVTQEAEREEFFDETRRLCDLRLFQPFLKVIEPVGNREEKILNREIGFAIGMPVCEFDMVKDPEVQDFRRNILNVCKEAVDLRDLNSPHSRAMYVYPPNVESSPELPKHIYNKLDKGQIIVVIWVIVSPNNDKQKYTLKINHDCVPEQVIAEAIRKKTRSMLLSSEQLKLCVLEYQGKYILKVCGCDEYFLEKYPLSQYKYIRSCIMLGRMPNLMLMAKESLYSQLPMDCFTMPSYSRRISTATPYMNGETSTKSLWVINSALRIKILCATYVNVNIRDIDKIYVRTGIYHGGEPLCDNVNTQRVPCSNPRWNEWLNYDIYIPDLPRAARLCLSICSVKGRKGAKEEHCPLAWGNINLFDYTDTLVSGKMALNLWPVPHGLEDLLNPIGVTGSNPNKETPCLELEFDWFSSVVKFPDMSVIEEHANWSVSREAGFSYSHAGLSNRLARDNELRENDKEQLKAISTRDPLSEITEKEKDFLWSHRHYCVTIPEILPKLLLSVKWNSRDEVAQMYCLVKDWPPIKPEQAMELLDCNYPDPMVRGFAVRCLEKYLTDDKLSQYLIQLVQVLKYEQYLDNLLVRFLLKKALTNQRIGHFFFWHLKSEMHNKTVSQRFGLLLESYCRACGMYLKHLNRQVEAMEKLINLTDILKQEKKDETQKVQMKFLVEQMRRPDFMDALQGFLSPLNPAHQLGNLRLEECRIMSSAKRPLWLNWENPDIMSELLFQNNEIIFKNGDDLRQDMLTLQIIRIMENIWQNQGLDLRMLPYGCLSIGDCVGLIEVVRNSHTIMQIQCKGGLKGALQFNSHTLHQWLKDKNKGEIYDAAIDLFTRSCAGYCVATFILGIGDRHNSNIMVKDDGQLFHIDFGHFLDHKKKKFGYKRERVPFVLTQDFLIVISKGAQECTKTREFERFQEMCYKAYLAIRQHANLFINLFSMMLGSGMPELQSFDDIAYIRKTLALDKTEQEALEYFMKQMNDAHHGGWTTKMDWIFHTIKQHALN

% of control [1]: 9%
SMILES: Cc1cc(-c2ccnc(Nc3cnn(C)c3)n2)ccc1CNC(=O)N1CC(OC(C)C)C1

IC50 [2]: > 30 µM
SMILES: CCC(=O)N1CC[C@H](Nc2ncnc3c2CN(c2cnc(OC)c(C(F)(F)F)c2)CC3)C1 [LENIOLISIB]

% of inhibition [5]: 6%
SMILES: Cc1ccc(-c2ccc3c(ccc4sc5c(c43)NC[C@@H](C)NC5=O)n2)cn1

Second part, the compound before the results:

SMILES: COCC(=O)NC/C=C/c1ccc2ncnc(Nc3ccc(Oc4ccc(C)nc4)c(C)c3)c2c1 [CP-724714]
% of control [3]: 96%

SMILES: C=CC(=O)Nc1cccc(C(=O)Nc2ccc(Nc3cc(-c4[nH]c(SC)nc4C)ccn3)cc2)c1
% of control ([4]; at 1 µM): 98% | % of control ([4]; at 5 µM): 96%

SMILES: N#Cc1cccc(-c2c[nH]c3ncnc(N4CCOCC4)c23)c1
% of inhibition [6]: 20%

SMILES: CNC(=O)Nc1ccc(-c2nc(N3CC4CCC(C3)O4)c3cnn(C4CCC5(CC4)OCCO5)c3n2)cc1
% of control [7]: 11%

SMILES: CC(C)(O)[C@H](F)CN1Cc2cc(NC(=O)c3cnn4cccnc34)c(N3CCOCC3)cc2C1=O
dTM [8]: 0.5 K
